From ChEMBL document CHEMBL5365463, “Identification of a Self-Assembling Small-Molecule Cancer Vaccine Adjuvant with an Improved Toxicity Profile” (J Med Chem, 2023)
Active and inactive are the calls of the source. The calls are words filed in the database; no cut-off is given here.

Columns and labels:
[1] = Toxicity in C57BL/6 mouse assessed as effect on glucose level in serum at 500 ug measured after 1 day after immunization; conditions: 24 h, dose 500 µg
RAW264.7 [2] = test: Induction of apoptosis in mouse RAW264.7 cells assessed as live cells at 10 uM by flow cytometry analysis (reference value: 75.4 %); type: functional
B16-OVA melanoma cell [3] = test: Antitumor activity against mouse B16-OVA melanoma cell xenografted in C57BL/6 mouse assessed as increase in number of memory T cells in spleen at 500 ug, sc in presence of OVAp by flow cytometry analysis; type: functional, organism-based; conditions: dose 500.0 µg
B16-OVA melanoma cell [4] = test: Antitumor activity against mouse B16-OVA melanoma cell xenografted in C57BL/6 mouse assessed as at 500 ug administered 5 times for every 2 days from day 9 to 17 in presence of OVAp; type: functional, cell-based; conditions: dose 500.0 µg, time 9.0 day
[5] = Toxicity in BALB/c mouse assessed as increase in Timp1 expression at 100 to 1000 ug measured after 16 hrs in presence of hemagglutinin; conditions: in vivo, dose 100-1000 µg
RAW264.7 [6] = test: Induction of apoptosis in mouse RAW264.7 cells assessed as necrotic cells at 4 uM by flow cytometry analysis (reference value: 20.6 %); type: functional
Mus musculus [7] = organism: Mus musculus; test: Induction of immune response in OVAp immunized C57BL/6 mouse assessed as increase in number of antigen-specific IFN-gamma+ CD44+ CD8+ T cells in spleen at 100 ug measured after 35 days by flow cytometry analysis; type: functional, organism-based; conditions: T-cell, dose 100.0 µg, time 35.0 day
[8] = Antitumor activity against mouse B16-OVA melanoma cell xenografted in C57BL/6 mouse assessed as fold increase in CD8+T cells at 500 ug, sc in presence of OVAp by flow cytometry analysis; type: functional; conditions: dose 500 µg
[9] = Toxicity in C57BL/6 mouse assessed as effect on urea level in serum at 500 ug measured after 1 day after immunization; conditions: 24 h, dose 500 µg
BMDC [10] = test: Induction of immune response in TLR7 knockout mouse BMDC cells assessed as increase in IFN-beta production at 10 to 100 uM incubated for 24 hrs by ELISA method; type: functional, cell-based; conditions: dose 10-100 µM
[11] = Antitumor activity against mouse B16-OVA melanoma cell xenografted in C57BL/6 mouse assessed as fold increase in IFN-gamma+TNF-alpha+ at 500 ug, sc in presence of OVAp by flow cytometry analysis; type: functional; conditions: dose 500 µg
RAW264.7 [12] = test: Induction of apoptosis in mouse RAW264.7 cells assessed as necrotic cells at 10 uM by flow cytometry analysis (reference value: 20.6 %); type: functional
BMDC [13] = test: Induction of immune response in TLR7 knockout mouse BMDC cells assessed as increase in MIP-1alpha production at 10 to 100 uM incubated for 24 hrs by ELISA method; type: functional, cell-based; conditions: dose 10-100 µM
Mus musculus [14] = organism: Mus musculus; test: Induction of immune response in OVAp immunized C57BL/6 mouse assessed as fold increase in IFN-gamma+ cytotoxic T lymphocytes at 100 ug measured after 35 days by flow cytometry analysis; type: functional, T-cell; conditions: dose 100 µg; time 35 day
[15] = Toxicity in BALB/c mouse assessed as reduction in platelet count measured after 16 hrs; conditions: dose 100-1000 µg
RAW264.7 [16] = test: Induction of apoptosis in mouse RAW264.7 cells assessed as apoptotic cells at 16 uM by flow cytometry analysis (reference value: 3.26 %); type: functional
[17] = Upregulation of CD40 expression in mouse RAW264.7 cells assessed as fold increase in fluorescence intensity at 20 uM measured after 24 hrs by flow cytometry analysis; type: functional
[18] = Toxicity in C57BL/6 mouse assessed as effect on lung at 500 ug, sc by H and E staining based analysis; type: organism-based; conditions: in vivo, dose 500 µg
RAW264.7 [19] = test: Induction of apoptosis in mouse RAW264.7 cells assessed as live cells at 16 uM by flow cytometry analysis (reference value: 75.4 %); type: functional
[20] = Toxicity in C57BL/6 mouse assessed as effect on kidney at 500 ug, sc by H and E staining based analysis; type: organism-based; conditions: in vivo, dose 500 µg
B16-OVA melanoma cell [21] = test: Antitumor activity against mouse B16-OVA melanoma cell xenografted in C57BL/6 mouse assessed as effect on central memory T cell in spleen at 500 ug, sc in presence of OVAp by flow cytometry analysis; type: functional, organism-based; conditions: dose 500.0 µg
Mus musculus [22] = test: Immuno-adjuvant activity in SV-immunized C57BL/6 mouse assessed as increase in HA-specific IgG1 titer level at 100 ug, sc administered immediately and on day 0, 14 and measured at day 21 by ELISA; type: functional, organism-based; conditions: dose 100.0 µg, time 21.0 day
[23] = Toxicity in C57BL/6 mouse assessed as effect on ALP level in serum at 500 ug measured after 1 day after immunization; conditions: 24 h, dose 500 µg
Mus musculus [24] = organism: Mus musculus; test: Induction of immune response in C57BL/6 mouse assessed as increase in total CD8+T cells percentage in spleen at 100 ug measured after 35 days by flow cytometry analysis; type: functional, organism-based; conditions: dose 100.0 µg, time 35.0 day
RAW264.7 [25] = test: Induction of apoptosis in mouse RAW264.7 cells assessed as apoptotic cells at 4 uM by flow cytometry analysis (reference value: 3.26 %); type: functional
[26] = Toxicity in C57BL/6 mouse assessed as effect on AST level in serum at 500 ug measured after 1 day after immunization; conditions: 24 h, dose 500 µg
RAW264.7 [27] = test: Induction of apoptosis in mouse RAW264.7 cells assessed as necrotic cells at 16 uM by flow cytometry analysis (reference value: 20.6 %); type: functional
[28] = Toxicity in C57BL/6 mouse assessed as effect on creatinine level in serum at 500 ug measured after 1 day after immunization; conditions: 24 h, dose 500 µg
RAW264.7 [29] = test: Induction of apoptosis in mouse RAW264.7 cells assessed as live cells at 8 uM by flow cytometry analysis (reference value: 75.4 %); type: functional
[30] = Toxicity in BALB/c mouse assessed as effect on body weight loss at 1000 ug measured after 16 hrs in presence of hemagglutinin; conditions: in vivo, dose 1000 µg
RAW264.7 [31] = test: Induction of apoptosis in mouse RAW264.7 cells assessed as necrotic cells at 8 uM by flow cytometry analysis (reference value: 20.6 %); type: functional
B16-OVA melanoma cell [32] = test: Antitumor activity against mouse B16-OVA melanoma cell xenografted in C57BL/6 mouse assessed as at 500 ug administered 5 times for every 2 days from day 9 to 17; type: functional, cell-based; conditions: dose 500.0 µg, time 9.0 day
[33] = Toxicity in C57BL/6 mouse assessed as effect on spleen at 500 ug, sc by H and E staining based analysis; type: organism-based; conditions: in vivo, dose 500 µg
RAW264.7 [34] = test: Upregulation of CD86 expression in mouse RAW264.7 cells measured after 24 hrs by flow cytometry analysis; type: functional, cell-based; conditions: dose 10-50 µM
[35] = Toxicity in C57BL/6 mouse assessed as effect on liver at 500 ug, sc by H and E staining based analysis; type: organism-based; conditions: in vivo, dose 500 µg
RAW264.7 [36] = test: Induction of apoptosis in mouse RAW264.7 cells assessed as necrotic cells at 12 uM by flow cytometry analysis (reference value: 20.6 %); type: functional
RAW264.7 [37] = test: Induction of apoptosis in mouse RAW264.7 cells assessed as apoptotic cells at 10 uM by flow cytometry analysis (reference value: 3.26 %); type: functional

Question: For `C[C@H](CCC(=O)NCCCCCCCNC(=O)CC[C@@H](C)[C@H]1CC[C@H]2[C@@H]3CC[C@@H]4C[C@H](O)CC[C@]4(C)[C@H]3C[C@H](O)[C@]12C)[C@H]1CC[C@H]2[C@@H]3CC[C@@H]4C[C@H](O)CC[C@]4(C)[C@H]3C[C@H](O)[C@]12C`, which Activity [1] is on record?
Answer: The Activity was “Non-Toxic”.

Question: What about the Activity (RAW264.7 [2]) of the same compound?
Answer: The Activity was 67.2%.

Question: What about the Activity (B16-OVA melanoma cell [3]) of the same compound?
Answer: Its Activity is “Active”.

Question: What about the Activity (B16-OVA melanoma cell [4]) of the same compound?
Answer: Its Activity is “Active”.

Question: What about the Activity [5] of the same compound?
Answer: The Activity was “Non-Toxic”.

Question: What about the Activity (RAW264.7 [6]) of the same compound?
Answer: The Activity was 19%.

Question: What about the Activity (Mus musculus [7]) of the same compound?
Answer: Its Activity is “Active”.

Question: And the “fold change (FC)” value [8]?
Answer: Its value is 6.3.

Question: What about the Activity [9] of the same compound?
Answer: Its Activity is “Non-Toxic”.

Question: What about the Activity (BMDC [10]) of the same compound?
Answer: The Activity was “inactive”.

Question: What about the “fold change (FC)” value [11] of the same compound?
Answer: The value was 2.8.

Question: And the Activity (RAW264.7 [12])?
Answer: The Activity was 28.6%.

Question: And the Activity (BMDC [13])?
Answer: Its Activity is “inactive”.

Question: What about the “fold change (FC)” value (Mus musculus [14]) of the same compound?
Answer: Its value is 7.6.

Question: What about the Activity [15] of the same compound?
Answer: Its Activity is “Dose-Dependent Effect”.

Question: What about the Activity (RAW264.7 [16]) of the same compound?
Answer: The Activity was 0.63%.

Question: What about the “fold change (FC)” value [17] of the same compound?
Answer: The value was 1.3.

Question: What about the Activity [18] of the same compound?
Answer: Its Activity is “Non-Toxic”.

Question: What about the Activity (RAW264.7 [19]) of the same compound?
Answer: Its Activity is 63.4%.

Question: And the Activity [20]?
Answer: The Activity was “Non-Toxic”.

Question: What about the Activity (B16-OVA melanoma cell [21]) of the same compound?
Answer: Its Activity is “Active”.

Question: And the Activity (Mus musculus [22])?
Answer: The Activity was “Active”.

Question: What about the Activity [23] of the same compound?
Answer: Its Activity is “Non-Toxic”.

Question: What about the Activity (Mus musculus [24]) of the same compound?
Answer: Its Activity is “Active”.

Question: What about the Activity (RAW264.7 [25]) of the same compound?
Answer: Its Activity is 2.1%.

Question: What about the Activity [26] of the same compound?
Answer: Its Activity is “Non-Toxic”.

Question: What about the Activity (RAW264.7 [27]) of the same compound?
Answer: Its Activity is 34%.

Question: What about the Activity [28] of the same compound?
Answer: Its Activity is “Non-Toxic”.

Question: What about the Activity (RAW264.7 [29]) of the same compound?
Answer: The Activity was 60.7%.

Question: And the Activity [30]?
Answer: Its Activity is “Non-Toxic”.

Question: And the Activity (RAW264.7 [31])?
Answer: The Activity was 36.1%.

Question: And the Activity (B16-OVA melanoma cell [32])?
Answer: Its Activity is “inactive”.

Question: What about the Activity [33] of the same compound?
Answer: Its Activity is “Non-Toxic”.

Question: And the Activity (RAW264.7 [34])?
Answer: Its Activity is “Dose-Dependent Effect”.

Question: And the Activity [35]?
Answer: Its Activity is “Non-Toxic”.

Question: What about the Activity (RAW264.7 [36]) of the same compound?
Answer: Its Activity is 30.5%.

Question: And the Activity (RAW264.7 [37])?
Answer: The Activity was 2.23%.
